# Test results reported in patent US20090081721A1, “HIGH-THROUGHPUT CELL ASSAYS” (The Regents of the University of California, priority 2007, published 2009).
# Read-outs that look alike come from different tables or passages of the source.
# Experiments:
# E. coli = test: Isothermal titrative calorimetry (ITC) susceptibility test, power output and CFUs recovered; assay type: cell-based; details: for Exponential increase in energy after injection (ITC thermogram): 10^4 wild-type antibiotic susceptible E. coli, 1 ml Mueller-Hinton broth, injection at 7,200 sec, 14,400 sec total
# Procedure: (§1) In general, the susceptibility of bacterial strains can be tested by loading the chamber of an isothermal titrative calorimeter with a single bacterial strain, holding a constant temperature of 37° C. for a set time period (e.g., 14,400 seconds (4 hours)) and monitoring the power produced by the bacteria before and after application of an antimicrobial. Following the loading of the calorimeter, there is an initial energy spike within the first 1500 seconds (25 minutes) that is a normal equilibration period for a calorimeter. After the instrument and sample have equilibrated, the energy produced by a normally growing and dividing culture increases in an exponential manner, similar to a log phase growth curve of a microbial culture based on optical density (OD). Like the exponential increase in OD observed for a growing culture, the exponential increase in energy produced also seems to be associated with an increased number of cells in the medium because the number of cells retrieved from the calorimeter following a susceptibility test increases by about 2-3 orders of magnitude. (See Table 1).
# In one aspect, the method is practiced by loading into a Isothermal Titrative Calorimetry (ITC) various drugs or antibiotics to which the cells such as microorganisms may be susceptible. The antibiotics can be loaded at different rates and at different growth densities. The difference in power produced by the sample co-cultured with the antibiotics are then measured and compared to the same untreated culture or culture treated with water. The data is differentiated to find the maximum growth rate (dP/dt), and integrated to determine the total microjoules produced by the culture after an antimicrobial was injected. If the organism is resistant to the antibiotic, the maximum growth rate is similar to that when the co-cultured with water. If the microorganism is sensitive to the antibiotic, maximum dP/dt and total microjoule (μJ) for the antimicrobial treated sample are much lower than the untreated sample or the sample treated with water. […]
# K. pneumoniae [1] = test: as above; assay type: cell-based, Klebsiella pneumoniae; details: for Number of microbes (CFUs) in calorimetry chamber after incubation: 10^5 loaded, 4-hour monitoring; for Max dP/dt (100 save) after injection / Total μJ produced after injection: ciprofloxacin susceptible, ampicillin resistant strain
# Procedure: as §1
# (§2) In one aspect, the method is practiced by loading into a Isothermal Titrative Calorimetry (ITC) various drugs or antibiotics to which the cells such as microorganisms may be susceptible. The antibiotics can be loaded at different rates and at different growth densities. The difference in power produced by the sample co-cultured with the antibiotics are then measured and compared to the same untreated culture or culture treated with water. The data is differentiated to find the maximum growth rate (dP/dt), and integrated to determine the total microjoules produced by the culture after an antimicrobial was injected. If the organism is resistant to the antibiotic, the maximum growth rate is similar to that when the co-cultured with water. If the microorganism is sensitive to the antibiotic, maximum dP/dt and total microjoule (μJ) for the antimicrobial treated sample are much lower than the untreated sample or the sample treated with water. See FIGS. 6 through 9 for exemplary ITC-generated growth data.
# (§3) The susceptibility of bacterial strains was tested by loading the chamber of an Isothermal Titrative Calorimeter (Calorimetry Sciences Corporation (CSC) and others are commercially available, see microcal.com/index, last accessed on Dec. 28, 2007) with a single bacterial strain, holding a constant temperature of 37° C. for 14,400 seconds (4 hours) and monitoring the power produced by the bacteria before and after application of an antimicrobial. Following the loading of the calorimeter, there is an initial energy spike within the first 1500 seconds (25 minutes) that is a normal equilibration period for a calorimeter. After the instrument and sample have equilibrated, the energy produced by a normally growing and dividing culture increases in an exponential manner, similar to a log phase growth curve of a microbial culture based on optical density (OD). Like the exponential increase in OD observed for a growing culture, the exponential increase in energy produced also seems to be associated with an increased number of cells in the medium because the number of cells retrieved from the calorimeter following a susceptibility test increases by 2-3 orders of magnitude. (See Table 1). A second spike in heat transfer being produced/absorbed in the calorimeter is associated with injection of either water or an antimicrobial into the injection chamber. This spike can be attributed to the enthalpy associated with dilution of the injected solution into the growth medium. […] If a strain is susceptible, a rise in power is not observed. If the strain is resistant to the agent or antimicrobial, the exponential rise in power is observed.
# (§4) […]. H2O, ampicillin, or ciprofloxacin was injected into the chamber at 7,200 sec (2 hours). […]
# P. mirabilis [2] = test: as above; assay type: cell-based, Proteus mirabilis; details: for Exponential increase in power (μW) after injection (ITC thermogram): injection at 7,200 sec, 14,400 sec total; for Number of microbes (CFUs) in calorimetry chamber after incubation: 10^5 loaded, 4-hour monitoring; for Max dP/dt (100 save) after injection / Total μJ produced after injection: ciprofloxacin resistant, ampicillin resistant strain
# Procedure: as §1, §2, §3
# . H2O, ampicillin, or ciprofloxacin was injected into the chamber at 7,200 sec (2 hours). […]
# A. baumanii [3] = test: as above; assay type: cell-based, Acinetobacter baumanii; details: for Exponential increase in power (μW) after injection (ITC thermogram): 10^5 A. baumanii, 1 ml Mueller-Hinton broth, injection at 7,200 sec, 14,400 sec total; for Number of microbes (CFUs) in calorimetry chamber after incubation: 10^5 loaded, 4-hour monitoring; for Max dP/dt (100 save) after injection / Total μJ produced after injection: ciprofloxacin resistant, ampicillin resistant strain
# Procedure: as §1, §2, §3, §4
# K. pneumoniae [4] = test: Minimum inhibitory concentration (traditional susceptibility testing); assay type: cell-based; details: Klebsiella pneumoniae
# Procedure: (§5) Minimum inhibitory concentrations are determined by inoculating several cultures of bacteria in separate tubes or wells of broth that typically contain a 2-fold serial dilution of an antimicrobial.
# P. mirabilis [5] = test: as above; assay type: cell-based; details: Proteus mirabilis
# Procedure: as §5
# A. baumanii [6] = test: as above; assay type: cell-based; details: Acinetobacter baumannii; wild-type ampicillin and ciprofloxacin resistant A. baumanii strain used in ITC
# Procedure: as §5
# [7] = 10^5 P. mirabilis, 1 ml Mueller-Hinton broth
smiles,measurement,setting,value
"CC1(C)S[C@@H]2[C@H](NC(=O)[C@H](N)c3ccccc3)C(=O)N2[C@H]1C(=O)O [Ampicillin, ampicillin]",Exponential increase in energy after injection (ITC thermogram),E. coli,exponential increase in energy only continued in the sample injected with H2O
same,Exponential increase in power (μW) after injection (ITC thermogram),"K. pneumoniae [1]; 10^5 K. pneumoniae, 1 ml Mueller-Hinton broth, injection at 7,200 sec, 14,400 sec total",exponential increase in power continued in the sample injected with H2O and ampicillin
same,Number of microbes (CFUs) in calorimetry chamber after incubation,K. pneumoniae [1]; Ampicillin 40 μg/ml,2.0 × 10^7 CFUs
same,Max dP/dt (100 save) after injection,K. pneumoniae [1]; Ampicillin 40 μg/ml,0.029
same,Total μJ produced after injection,K. pneumoniae [1]; Ampicillin 40 μg/ml,"139,108 μJ"
same,Exponential increase in power (μW) after injection (ITC thermogram),P. mirabilis [2]; [7],exponential increase in power continued in all three samples
same,Number of microbes (CFUs) in calorimetry chamber after incubation,P. mirabilis [2]; Ampicillin 40 μg/ml,9.0 × 10^5 CFUs
same,Max dP/dt (100 save) after injection,P. mirabilis [2]; Ampicillin 40 μg/ml,0.027
same,Total μJ produced after injection,P. mirabilis [2]; Ampicillin 40 μg/ml,"161,844 μJ"
same,Exponential increase in power (μW) after injection (ITC thermogram),A. baumanii [3],exponential increase in power continued in all three samples
same,Number of microbes (CFUs) in calorimetry chamber after incubation,A. baumanii [3]; Ampicillin 40 μg/ml,3.0 × 10^7 CFUs
same,Max dP/dt (100 save) after injection,A. baumanii [3]; Ampicillin 40 μg/ml,0.026
same,Total μJ produced after injection,A. baumanii [3]; Ampicillin 40 μg/ml,"91,240 μJ"
same,MIC,K. pneumoniae [4],> 1020 µg/mL
same,MIC,P. mirabilis [5],> 1020 µg/mL
"O=C(O)c1cn(C2CC2)c2cc(N3CCNCC3)c(F)cc2c1=O [Ciprofloxacin, ciprofloxacin]",Exponential increase in energy after injection (ITC thermogram),E. coli,exponential increase in energy only continued in the sample injected with H2O
same,Number of microbes (CFUs) in calorimetry chamber after incubation,"E. coli; Ciprofloxacin 2 μg/ml, 10^4 loaded, 4-hour monitoring",1.7 × 10^7 CFUs
same,Number of microbes (CFUs) in calorimetry chamber after incubation,K. pneumoniae [1]; Ciprofloxacin 2 μg/ml,3.6 × 10^7 CFUs
same,Max dP/dt (100 save) after injection,K. pneumoniae [1]; Ciprofloxacin 2 μg/ml,0.003
same,Total μJ produced after injection,K. pneumoniae [1]; Ciprofloxacin 2 μg/ml,"24,676 μJ"
same,"Rate of exponential increase in power after injection, compared with ampicillin or H2O","P. mirabilis [2]; 10^5 P. mirabilis, 1 ml Mueller-Hinton broth, injection at 7,200 sec",lower than for ampicillin or H2O
same,Exponential increase in power (μW) after injection (ITC thermogram),P. mirabilis [2]; [7],exponential increase in power continued in all three samples
same,Number of microbes (CFUs) in calorimetry chamber after incubation,P. mirabilis [2]; Ciprofloxacin 2 μg/ml,4.1 × 10^6 CFUs
same,Max dP/dt (100 save) after injection,P. mirabilis [2]; Ciprofloxacin 2 μg/ml,0.012
same,Total μJ produced after injection,P. mirabilis [2]; Ciprofloxacin 2 μg/ml,"79,439 μJ"
same,Exponential increase in power (μW) after injection (ITC thermogram),A. baumanii [3],exponential increase in power continued in all three samples
same,Number of microbes (CFUs) in calorimetry chamber after incubation,A. baumanii [3]; Ciprofloxacin 2 μg/ml,2.1 × 10^7 CFUs
same,Max dP/dt (100 save) after injection,A. baumanii [3]; Ciprofloxacin 2 μg/ml,0.027
same,Total μJ produced after injection,A. baumanii [3]; Ciprofloxacin 2 μg/ml,"100,846 μJ"
same,MIC,A. baumanii [6],> 32 µg/mL
same,MIC,"P. mirabilis [5]; ampicillin resistant, weakly ciprofloxacin resistant P. mirabilis strain used in ITC, read-out: MIC",4 µg/mL
CC(C)(O/N=C(\C(=O)N[C@@H]1C(=O)N2C(C(=O)[O-])=C(C[n+]3ccccc3)CS[C@H]12)c1csc(N)n1)C(=O)O [ceftazidime],MIC,P. mirabilis [5],128 µg/mL
